Source: patent publication US8815857B2 (Boehringer Ingelheim International GmbH, priority 2011, dated 2014)
In brackets after ≈: the same amount, converted by molar mass.

Legend:
[1] = molecular target: T1, Recombinant human soluble guanylate cyclase (sGC), alpha 1 / beta 1 subunits, heme-free (Homo sapiens, UniProt Q02108+Q02153); test: Molecular assay: cGMP formation by heme-free recombinant sGC (CisBio cGMP detection kit); format: biochemical; settings: 300 pM heme-free sGC, 37° C., 60 min, cGMP readout; read-out: EC50 nM, Activity of Compounds in Molecular Assay
T1 construct: histidine tag (C); made in house; host or cells: Sf9 insect cells (baculovirus coinfection)
T1 sequence (Q02108 1-690 partner): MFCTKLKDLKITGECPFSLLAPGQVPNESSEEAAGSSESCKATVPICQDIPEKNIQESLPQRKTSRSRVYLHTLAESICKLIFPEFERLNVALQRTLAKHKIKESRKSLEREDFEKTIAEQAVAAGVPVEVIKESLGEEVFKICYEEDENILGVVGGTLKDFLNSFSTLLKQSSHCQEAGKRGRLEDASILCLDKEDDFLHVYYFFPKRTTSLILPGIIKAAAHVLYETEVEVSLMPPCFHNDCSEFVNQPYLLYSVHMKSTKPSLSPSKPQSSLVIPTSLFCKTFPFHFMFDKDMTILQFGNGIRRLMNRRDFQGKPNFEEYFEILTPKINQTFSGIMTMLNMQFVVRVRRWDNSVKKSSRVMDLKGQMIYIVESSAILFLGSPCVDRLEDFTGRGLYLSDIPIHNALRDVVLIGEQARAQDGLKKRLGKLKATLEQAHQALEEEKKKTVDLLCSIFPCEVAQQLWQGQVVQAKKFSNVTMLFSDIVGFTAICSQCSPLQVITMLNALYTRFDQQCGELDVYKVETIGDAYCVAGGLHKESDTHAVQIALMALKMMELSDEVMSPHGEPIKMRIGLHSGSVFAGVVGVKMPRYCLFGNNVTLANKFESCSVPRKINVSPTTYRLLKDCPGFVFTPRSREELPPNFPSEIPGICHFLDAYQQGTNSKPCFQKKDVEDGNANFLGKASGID
T1 sequence (Q02153 1-619): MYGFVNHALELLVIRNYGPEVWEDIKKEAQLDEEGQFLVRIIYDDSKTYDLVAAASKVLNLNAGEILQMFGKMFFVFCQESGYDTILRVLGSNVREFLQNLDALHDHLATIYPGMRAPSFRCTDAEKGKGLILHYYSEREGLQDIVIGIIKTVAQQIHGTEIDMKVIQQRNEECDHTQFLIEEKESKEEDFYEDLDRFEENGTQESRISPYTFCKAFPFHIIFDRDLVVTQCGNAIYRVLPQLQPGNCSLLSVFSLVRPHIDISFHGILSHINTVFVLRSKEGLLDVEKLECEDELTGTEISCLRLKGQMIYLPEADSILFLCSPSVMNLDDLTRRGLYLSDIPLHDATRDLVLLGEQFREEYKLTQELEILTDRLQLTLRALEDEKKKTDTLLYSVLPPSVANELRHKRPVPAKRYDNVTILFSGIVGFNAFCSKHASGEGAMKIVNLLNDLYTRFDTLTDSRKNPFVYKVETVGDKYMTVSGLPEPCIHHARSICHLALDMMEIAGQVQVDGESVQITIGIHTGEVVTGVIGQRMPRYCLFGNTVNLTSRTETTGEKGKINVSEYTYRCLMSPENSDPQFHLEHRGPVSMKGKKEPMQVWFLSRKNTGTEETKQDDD
Method: Recombinant human soluble guanylate cyclase (sGC) is purified from Sf9 insect cells coinfected with baculoviruses expressing the alpha 1 or beta 1 subunit of sGC, both with a C-terminal histidine tag. Heme-free sGC is prepared by treating cell lysate with a final concentration of 0.5% Tween 20 prior to purification on a nickel affinity column.
sGC catalyzes the conversion of guanosine-5′-triphosphate (GTP) to cyclic guanosine monophosphate (cGMP). The activity of sGC is measured in vitro using the commercially available CisBio cGMP detection kit (catalog # 62GM2PEB) in a 384 well format. In brief, 300 pM heme-free sGC is incubated in reaction buffer (50 mM MOPS pH 6.8, 0.2 N KOH, 50 mM NaCl, 2 mM MgCl2, 0.1% BSA, 1.25 mM IBMX, 0.25 mM TCEP, 50 nM GTP) in the presence or absence of dilutions of test compounds diluted in DMSO (final concentration of 1%) in a volume of 10 microL at 37° C. for 60 min. Undiluted reaction products or an 80-fold dilution of reaction products (10 microL of either) prepared in reaction buffer containing 0.2 mM TCEP and 10 mM EDTA is mixed with 5 microL of d2-cGMP plus 5 microL of Eu^3+ cryptate-labeled anti-cGMP, each diluted in buffer containing 0.1 M KPO4 pH 7.5, 0.4 M KF, 20 mM EDTA, 0.2% BSA. After a one h incubation at room temperature in the dark, the mixtures are quantified on an EnVision plate reader (PerkinElmer) according to manufacturer instructions (laser excitation 337 nm, emission 620 and 665 nm). The ratio at each compound concentration is converted to nM cGMP using the linear portion of a calibration curve. Log compound concentration is plotted against combined undiluted and diluted nM cGMP values to determine the EC50 for each curve.

[2] = Assessment of solubility: HT solubility in pION buffer, UV spectrophotometry; settings: 16-19 h incubation, 1.0% DMSO; for solubility: pION system solution buffer, kinetic from dmso stock
[3] = pH 4.5, pH 4.5, aqueous buffer, Solubility (pH 4.5), pH 4.5 buffer
[4] = pH 7.4, pH 7.4, aqueous buffer, Solubility (pH 7.4), pH 7.4 buffer

Structure (SMILES)	EC50 [1] [nM]	solubility [2, 3] [µg/mL]	solubility [2, 4] [µg/mL]	Solubility (pH 4.5) ([2]; pH 4.5 buffer) [μg/mL]
Cc1ccc(OCc2ccc(C(=O)N3CCCCC3)cc2C)c(-c2csc(C3=CCC(C(=O)O)CC3)n2)c1 (stereo not drawn) [Compound 32]	310	0.15 (≈ 0.283 µM)	29 (≈ 54.6 µM)	–
Cc1cc(CN2CCOCC2)ccc1COc1ccc(C#N)cc1-c1csc(N2CC3C(C2)C3C(=O)O)n1 (stereo not drawn) [Compound 33]	7800	> 60	> 60	–
Cc1ccc(OCc2ccc(C(=O)N3CCCCC3)cc2C)c(-c2csc(N3CC4C(C3)C4C(=O)O)n2)c1 (stereo not drawn) [Compound 34]	390	0.9 (≈ 1.69 µM)	> 53	–
Cc1cc(CN2CCOCC2)ccc1COc1c(C#N)cccc1-c1csc(N2CCC(C(=O)O)CC2)n1 [Compound 35]	280	> 53	> 53	–
Cc1cccc(-c2csc(N3CCC(C(=O)O)CC3)n2)c1OCc1ccc(CN2CCOCC2)cc1C#N [Compound 36]	140	> 64	> 64	–
Cc1ccc(OCc2ccc(C(=O)N3CCCCC3)cc2C)c(-c2csc([C@H]3CC[C@@H](C(=O)O)CC3)n2)c1 [Compound 37]	2100	0.15 (≈ 0.282 µM)	> 53	–
Cc1ccc(OCc2ccc(C(=O)N3CCCCC3)cc2C)c(-c2csc([C@H]3CC[C@H](C(=O)O)CC3)n2)c1 [Compound 38]	1700	0.25 (≈ 0.469 µM)	> 53	–
Cc1ccc(OCc2ccc(C(=O)N3CCCCC3)cc2C)c(-c2csc(N3CCC(C(=O)O)CC3)n2)c1 [Compound 39]	27	0.95 (≈ 1.78 µM)	> 53	–
Cc1ccc(OCc2ccc(C(=O)N3CCCCC3)cc2C)c(-c2csc(N[C@H]3CC[C@@H](C(=O)O)C3)n2)c1 [Compound 40, (1R,3S)-3-[[4-[5-methyl-2-[[2-methyl-4-(piperidine-1-carbonyl)phenyl]methoxy]phenyl]thiazol-2-yl]amino]cyclopentanecarboxylic acid]	2600	2.3 (≈ 4.31 µM)	> 53	–
Cc1cc(C(=O)N2CCCCC2)ccc1COc1ccccc1-c1csc(N2CCC(C(=O)O)CC2C)n1 (stereo not drawn) [Compound 41]	70	1.1 (≈ 2.06 µM)	> 53	–
Cc1cc(C(=O)N2CCCCC2)ccc1COc1ccccc1-c1csc(N2CCC(C(=O)O)C(C)C2)n1 (stereo not drawn) [Compound 42]	51	0.45 (≈ 0.843 µM)	> 53	–
Cc1cc(CN2CCOCC2)ccc1COc1ccccc1-c1csc(N2CC3CCC(C2)C3C(=O)O)n1 (stereo not drawn) [Compound 43]	63	> 60	> 60	–
Cc1cc(CN2CCOCC2)ccc1COc1ccccc1-c1csc(N2C3CCC2CC(C(=O)O)C3)n1 (stereo not drawn) [Compound 44]	760	> 60	> 60	–
Cc1ccc(OCc2ccc(CNC3CCCCC3)cc2C)c(-c2csc(N3CCC(C(=O)O)CC3)n2)c1 [Compound 45]	730	> 64	35 (≈ 65.6 µM)	–
COCCN(C)Cc1ccc(COc2ccc(C)cc2-c2csc(N3CCC(C(=O)O)CC3)n2)c(C#N)c1 [Compound 46]	260	> 64	> 64	–
Cc1ccc(OCc2ccc(CNC(C)(C)CO)cc2C#N)c(-c2csc(N3CCC(C(=O)O)CC3)n2)c1 [Compound 47]	4000	> 64	> 64	–

Structure (SMILES)	EC50 [1] [nM]	solubility [2, 3] [µg/mL]	solubility [2, 4] [µg/mL]	Solubility (pH 4.5) ([2]; pH 4.5 buffer) [μg/mL]
Cc1cc(C(=O)N2CCCCC2)ccc1COc1ccc(F)cc1-c1csc(C2=CCC(C(=O)O)CC2)n1 (stereo not drawn) [Compound 48]	360	–	27 (≈ 50.5 µM)	0.1
Cc1ccc(OCc2ccc(C(=O)N3CCOCC3)cc2C)c(-c2csc(N3CCC(C(=O)O)CC3)n2)c1 [Compound 49]	130	13 (≈ 24.3 µM)	> 53	–
Cc1ccc(OCc2ccc(CN3CCOCC3)cc2C)c(-c2csc(N3CCC(C)(C(=O)O)CC3)n2)c1 [Compound 51]	1100	> 58	31 (≈ 57.9 µM)	–
Cc1ccc(OCc2ccc(CN3CCOCC3)cc2C)c(-c2csc(N3CCCC(C(=O)O)CC3)n2)c1 (stereo not drawn) [Compound 52]	39	> 58	> 58	–
Cc1cc(CN2CCCC(O)C2)ccc1COc1c(C)cccc1-c1csc(N2CCC(C(=O)O)CC2)n1 (stereo not drawn) [Compound 53]	640	> 53	> 53	–
Cc1cc(CN2CCC(O)CC2)ccc1COc1c(C)cccc1-c1csc(N2CCC(C(=O)O)CC2)n1 [Compound 54]	2000	16 (≈ 29.9 µM)	16 (≈ 29.9 µM)	–
Cc1cc(C(=O)N2CCCCC2)ccc1COc1ccc(F)cc1-c1csc(N2CC3C(C2)C3C(=O)O)n1 (stereo not drawn) [Compound 55]	360	0.3 (≈ 0.56 µM)	> 53	–
Cc1cc(C(=O)N2CCCCC2)ccc1COc1ccc(F)cc1-c1csc([C@H]2CC[C@@H](C(=O)O)CC2)n1 [Compound 56]	1600	0.2 (≈ 0.373 µM)	29 (≈ 54 µM)	–
Cc1cc(C(=O)N2CCCCC2)ccc1COc1ccc(F)cc1-c1csc([C@H]2CC[C@H](C(=O)O)CC2)n1 [Compound 57]	1800	–	> 53	0.1
Cc1cc(CN2CCOCC2)ccc1COc1ccc(F)cc1-c1csc(N2CCC(C(=O)O)C(C)C2)n1 (stereo not drawn) [Compound 58]	480	44 (≈ 81.5 µM)	> 61	–
Cc1cc(C(=O)N2CCCCC2)ccc1COc1ccc(F)cc1-c1csc(N2CCC(C(=O)O)CC2)n1 [Compound 59]	39	0.5 (≈ 0.93 µM)	> 53	–
Cc1ccc(OCc2ccc(CN3CCOCC3)cc2C)c(-c2csc(N3CCC(F)(C(=O)O)CC3)n2)c1 [Compound 60]	1200	> 58	> 58	–
Cc1cc(CN2CCOCC2)ccc1COc1ccc(F)cc1-c1csc(N2CCC(C(=O)O)CC2C)n1 (stereo not drawn) [Compound 61]	440	44 (≈ 81.5 µM)	> 61	–
Cc1cc(CN2CCOCC2)ccc1COc1c(Cl)cccc1-c1csc(N2CCC(C(=O)O)CC2)n1 [Compound 62]	22	30 (≈ 55.3 µM)	> 65	–
Cc1cc(CN2CCOCC2)ccc1COc1ccc(Cl)cc1-c1csc(N2CCC(C(=O)O)CC2)n1 [Compound 63]	110	30 (≈ 55.3 µM)	32 (≈ 59 µM)	–
